{
  "source": "ChEMBL document CHEMBL4004788",
  "about": "“Cyclin-Dependent Kinase (CDK) Inhibitors: Structure-Activity Relationships and Insights into the CDK-2 Selectivity of 6-Substituted 2-Arylaminopurines” (J Med Chem, 2017)",
  "key": {"Calu-6 [1]": {"tested_on": "Calu-6", "experiment": "Growth inhibition of Rb-proficient human Calu6 cells after 120 hrs by SRB assay", "format": "functional"}, "SJSA-1 [2]": {"tested_on": "SJSA-1", "experiment": "Growth inhibition of Rb-proficient human SJSA1 cells after 120 hrs by SRB assay", "format": "functional"}, "Skut1B [3]": {"tested_on": "Skut1B", "experiment": "Growth inhibition of Rb-proficient human SK-UT-1B cells after 120 hrs by SRB assay", "format": "functional"}, "MDA-MB-231 [4]": {"tested_on": "MDA-MB-231", "experiment": "Growth inhibition of Rb-proficient human MDA-MB-231 cells after 120 hrs by SRB assay", "format": "functional"}, "A-375 [5]": {"tested_on": "A-375", "experiment": "Growth inhibition of Rb-proficient human A375 cells after 120 hrs by SRB assay", "format": "functional"}, "[6]": {"experiment": "Chemical stability of the compound", "format": "physicochemical"}, "Skut1B [7]": {"tested_on": "Skut1B", "experiment": "Growth inhibition of Rb-proficient human SK-UT-1B cells at 30 uM after 120 hrs by SRB assay", "format": "functional, cell-based"}, "SJSA-1 [8]": {"tested_on": "SJSA-1", "experiment": "Growth inhibition of Rb-proficient human SJSA1 cells at 30 uM after 120 hrs by SRB assay", "format": "functional, cell-based"}, "Calu-6 [9]": {"tested_on": "Calu-6", "experiment": "Growth inhibition of Rb-proficient human Calu6 cells at 30 uM after 120 hrs by SRB assay", "format": "functional, cell-based"}, "A-375 [10]": {"tested_on": "A-375", "experiment": "Growth inhibition of Rb-proficient human A375 cells at 30 uM after 120 hrs by SRB assay", "format": "functional, cell-based"}, "MDA-MB-231 [11]": {"tested_on": "MDA-MB-231", "experiment": "Growth inhibition of Rb-proficient human MDA-MB-231 cells at 30 uM after 120 hrs by SRB assay", "format": "functional, cell-based"}, "[12]": {"target": "Cyclin-dependent kinase 2 (Homo sapiens, UniProt P24941)", "description": "Inhibition of CDK2 (unknown origin)"}, "Homo sapiens": {"species_on_record": "Homo sapiens", "experiment": "Inhibition of Cdk4/Cyclin D (unknown origin) relative to untreated control", "conditions": "concentration not given here"}},
  "note": "Calls of active or inactive are those of the source. The calls are words filed in the database; no cut-off is given here.",
  "data": [
    {"smiles": "NS(=O)(=O)c1ccc(Nc2nc(OCC3CCCCC3)c3cc[nH]c3n2)cc1", "values": [
      {"measurement": "growth inhibition (GI)", "setting": "Calu-6 [1]", "value": "Dose-dependent effect"},
      {"measurement": "growth inhibition (GI)", "setting": "SJSA-1 [2]", "value": "Dose-dependent effect"},
      {"measurement": "growth inhibition (GI)", "setting": "Skut1B [3]", "value": "Dose-dependent effect"},
      {"measurement": "growth inhibition (GI)", "setting": "MDA-MB-231 [4]", "value": "Dose-dependent effect"},
      {"measurement": "growth inhibition (GI)", "setting": "A-375 [5]", "value": "Dose-dependent effect"}
    ]},
    {"smiles": "COc1nc(N)nc2nc[nH]c12", "note": "[METHYLGUANINE]", "values": [
      {"measurement": "Stability", "setting": "[6]", "value": "Unstable"}
    ]},
    {"smiles": "NS(=O)(=O)c1ccc(Nc2nc(-c3cccc(-c4ccccc4)c3)c3nc[nH]c3n2)cc1", "values": [
      {"measurement": "growth inhibition (GI)", "setting": "Skut1B [7]", "value": "inactive"},
      {"measurement": "growth inhibition (GI)", "setting": "SJSA-1 [8]", "value": "inactive"},
      {"measurement": "growth inhibition (GI)", "setting": "Calu-6 [9]", "value": "inactive"},
      {"measurement": "growth inhibition (GI)", "setting": "A-375 [10]", "value": "inactive"},
      {"measurement": "growth inhibition (GI)", "setting": "MDA-MB-231 [11]", "value": "inactive"}
    ]},
    {"smiles": "NS(=O)(=O)c1ccc(Nc2nc(OCC3CCCCC3)c3cn[nH]c3n2)cc1", "values": [
      {"measurement": "growth inhibition (GI)", "setting": "Calu-6 [1]", "value": "Dose-dependent effect"},
      {"measurement": "growth inhibition (GI)", "setting": "SJSA-1 [2]", "value": "Dose-dependent effect"},
      {"measurement": "growth inhibition (GI)", "setting": "Skut1B [3]", "value": "Dose-dependent effect"},
      {"measurement": "growth inhibition (GI)", "setting": "MDA-MB-231 [4]", "value": "Dose-dependent effect"},
      {"measurement": "growth inhibition (GI)", "setting": "A-375 [5]", "value": "Dose-dependent effect"}
    ]},
    {"smiles": "CCC(C)Oc1nc(N)nc2[nH]cnc12", "note": "(centres undefined)", "values": [
      {"measurement": "IC50", "setting": "[12]", "value": 49, "unit": "µM"}
    ]},
    {"smiles": "NS(=O)(=O)c1ccc(Nc2nc(OCC3CCCCC3)c3nc[nH]c3n2)cc1", "values": [
      {"measurement": "growth inhibition (GI)", "setting": "Calu-6 [1]", "value": "Active"},
      {"measurement": "growth inhibition (GI)", "setting": "SJSA-1 [2]", "value": "Active"},
      {"measurement": "growth inhibition (GI)", "setting": "Skut1B [3]", "value": "Active"},
      {"measurement": "growth inhibition (GI)", "setting": "MDA-MB-231 [4]", "value": "Active"},
      {"measurement": "growth inhibition (GI)", "setting": "A-375 [5]", "value": "Active"}
    ]},
    {"smiles": "Nc1nc(OCC2CCCCC2)c2cn[nH]c2n1", "values": [
      {"measurement": "inhibition", "setting": "Homo sapiens", "value": 0, "unit": "%"}
    ]},
    {"smiles": "CC[C@@H](C)Oc1nc(Nc2ccc(S(N)(=O)=O)cc2)nc(N)c1C=O", "values": [
      {"measurement": "IC50", "setting": "[12]", "value": 0.0008, "unit": "µM"}
    ]}
  ]
}
